Tests used:
Mhp-Lpl [1] = molecular target: T1, Mhp-Lpl (Mesomycoplasma hyopneumoniae, UniProt Q4AA29); assay: X-ray crystallography, […] Å; assay type: binding; details: enzyme reacted with ATP and lipoic acid, then further purified and crystallised; partial occupancy; active site; reaction intermediate; an unidentified AMP-fatty acid co-purifies from E. coli
T1 construct: gene lplA-1; full length, 343 residues, C-terminal His tag, pET32a NdeI/XhoI, synthetic E. coli codon-optimised gene (TGA to TGG), expressed in E. coli BL21(DE3), about 40 kDa
T1 sequence (Q4AA29 1-342 limits assumed): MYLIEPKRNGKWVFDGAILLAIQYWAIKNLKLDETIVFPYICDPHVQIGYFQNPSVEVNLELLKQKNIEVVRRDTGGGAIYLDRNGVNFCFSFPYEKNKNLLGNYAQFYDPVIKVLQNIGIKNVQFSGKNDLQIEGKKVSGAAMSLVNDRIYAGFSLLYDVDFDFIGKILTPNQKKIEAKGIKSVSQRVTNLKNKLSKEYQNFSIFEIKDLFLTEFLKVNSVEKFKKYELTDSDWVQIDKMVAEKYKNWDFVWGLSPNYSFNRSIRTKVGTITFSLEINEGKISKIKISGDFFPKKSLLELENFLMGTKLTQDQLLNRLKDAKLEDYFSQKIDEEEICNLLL

[2] = molecular target: T2, large domain of Mhp-Lpl (ML) (Mesomycoplasma hyopneumoniae, UniProt Q4AA29); assay: western blot of GcvH lipoylation with anti-lipoic acid antibody; assay type: biochemical; details: 1 mM lipoic acid, 5 mM ATP, 1 mM MgCl2, 5 mM DTT, 20 μM apo Mhp H as acceptor, pH 7.0, 37 °C, 4 h
T2 construct: gene lplA-1; large N-terminal domain, residues 1-254, C-terminal His tag, pET32a, expressed in E. coli BL21(DE3)
T2 sequence (Q4AA29 1-256 limits assumed): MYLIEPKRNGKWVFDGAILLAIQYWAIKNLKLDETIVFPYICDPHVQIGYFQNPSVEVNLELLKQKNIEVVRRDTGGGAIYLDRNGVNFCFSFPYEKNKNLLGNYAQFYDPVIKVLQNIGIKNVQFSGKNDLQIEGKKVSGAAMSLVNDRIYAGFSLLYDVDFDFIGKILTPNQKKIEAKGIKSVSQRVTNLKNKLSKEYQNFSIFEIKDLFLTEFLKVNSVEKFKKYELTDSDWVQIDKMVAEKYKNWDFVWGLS

Mhp-Lpl [3] = molecular target: T1, Mhp-Lpl; assay: as above; assay type: biochemical; details: 1 mM lipoic acid, 5 mM ATP, 1 mM MgCl2, 5 mM DTT, 20 μM apo Mhp H as acceptor, pH 7.0, 37 °C, 4 h
E. coli LplA = molecular target: T3, E. coli LplA (Escherichia coli, UniProt P32099); assay: as above; assay type: biochemical; details: 1 mM lipoic acid, 5 mM ATP, 1 mM MgCl2, 5 mM DTT, 20 μM apo E. coli GcvH as acceptor, pH 7.0, 37 °C, 4 h
T3 construct: full length, C-terminal His tag, pET32a NdeI/XhoI, expressed in E. coli BL21(DE3)
T3 sequence (P32099 2-338): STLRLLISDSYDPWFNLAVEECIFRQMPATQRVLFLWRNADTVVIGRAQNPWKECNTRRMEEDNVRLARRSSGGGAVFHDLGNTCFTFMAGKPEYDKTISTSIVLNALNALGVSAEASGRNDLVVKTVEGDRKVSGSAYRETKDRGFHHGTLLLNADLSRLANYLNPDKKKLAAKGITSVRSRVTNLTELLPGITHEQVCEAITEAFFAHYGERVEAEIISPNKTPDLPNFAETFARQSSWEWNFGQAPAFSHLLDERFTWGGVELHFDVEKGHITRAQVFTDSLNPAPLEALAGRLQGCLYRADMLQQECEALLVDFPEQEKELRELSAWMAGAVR

Nc1ncnc2c1ncn2[C@@H]1O[C@H](COP(=O)(O)OC(=O)CCCC[C@@H]2CCSS2)[C@@H](O)[C@H]1O [lipoyl-AMP]
X-ray crystallography, 2.45 Å (Mhp-Lpl [1]): lipoyl-AMP could be modeled into the density, despite its partial occupancy

Nc1ncnc2c1ncn2[C@@H]1O[C@H](COP(=O)(O)OP(=O)(O)OP(=O)(O)O)[C@@H](O)[C@H]1O [ATP]
western blot of GcvH lipoylation with anti-lipoic acid antibody [2]: including activation of lipoic acid with ATP to form lipoyl-AMP
western blot of GcvH lipoylation with anti-lipoic acid antibody (Mhp-Lpl [3]): Mhp-Lpl catalyzes the ATP-dependent activation of lipoate to lipoyl-AMP

O=C(O)CCCC[C@@H]1CCSS1 (racemic) [lipoic acid]
western blot of GcvH lipoylation with anti-lipoic acid antibody [2]: the large domain is able to catalyze Mhp H lipoylation
western blot of GcvH lipoylation with anti-lipoic acid antibody (Mhp-Lpl [3]): lipoic acid was successfully transferred to the Mhp H protein by the MHP_RS01680-encoded protein
western blot of GcvH lipoylation with anti-lipoic acid antibody (E. coli LplA): E. coli LplA could successfully transfer lipoic acid to E. coli GcvH

— PMC7186572, “Functional Identification and Structural Analysis of a New Lipoate Protein Ligase in Mycoplasma hyopneumoniae” (Frontiers in Cellular and Infection Microbiology, 2020)
